Experimental data from US20250177392A1, “BROAD SPECTRUM INHIBITORS OF CYTOMEGALOVIRUS” (MICROBIOTIX, INC., priority 2022, published 2025).
pIC50: −log10 of the molar value.

Tests used:
AD169^R (IE1 expression) = assay: Western blot (immunoblot) of IE1 expression in AD169^R-infected cells; type: cell-based, Human cytomegalovirus; details: NHDF cells, 24 hpi; MBX-4992 1-10 μM, ganciclovir 5 μM, convallotoxin 0.01 μM
Experimental: The molecular weight markers and respective proteins are indicated.
FIGS. 12A and B are Western Blot assays showing that MBXC-4336 limits expression of IE1 in fibroblasts and epithelial cells. Total cell lysates from AD169^R-infected (MOI 0.2) NHDF (A) and ARPE-19 (B) cells pre-treated with DMSO, MBX-4336 (0, 1, 5, 10, or 20 μM), or heparin (50 μg/mL) collected at 48 hpi were subjected to Western blot analysis using a rabbit anti-IE-1 antibody (lanes 1-7) and an anti-GAPDH antibody (lanes 8-14) as a loading control. The molecular weight markers and respective proteins are indicated.
Total cell lysates from virus infected NHDF cells treated with compounds were created through SDS-lysis (10^4/100 uL of 1% SDS) of at least three rounds of heating at 95° C. for 3 min and vigorous agitation. The total cell lysates were resolved using an SDS-polyacrylamide gel (12.5%), transferred to a PVDF membrane using a semi-dry apparatus. The membrane was then incubated with 1% BSA/PBS for 1 hr at room temperature followed by incubation with anti-IE1 and anti-GAPDH. Finally, the respective secondary antibody conjugated with HRP was incubated with membrane followed by detection using ECL reagents (Millipore).
Next, inhibition of the expression of IE1 in AD169^R-infected cells treated with MBX-4992 was examined by immunoblot analysis (FIG. 4E). […] Collectively, these findings further indicate that MBX-4992 effectively prevents the expression of the immediate-early genes during a CMV infection.

HCMV AD169 = assay: Herpes virus panel neutralization, HCMV AD169; type: cell-based, Human cytomegalovirus; details: Human betaherpesvirus 5; HCMV AD169; read-out: IC50
Experimental: (§1) To determine the specificity of MBX-4992, additional neutralization experiments were conducted using a panel of herpes viruses performed in the presence of MBX-4992. […] Collectively, the antiviral activity of MBX-4992 is equivalent to that of GCV indicating specific inhibition of CMV replication.

HCMV GDGr K17 (GCV^R) = assay: Herpes virus panel neutralization, GCV-resistant HCMV; type: cell-based, Human cytomegalovirus; details: Human betaherpesvirus 5
Experimental: as §1

MCMV Smith = assay: Herpes virus panel neutralization, MCMV; type: cell-based, Murine cytomegalovirus; details: Murid betaherpesvirus 1; MCMV Smith; read-out: IC50
Experimental: as §1

AD169^R CMV virus = assay: Plaque reduction (dissemination) assay, prophylactic treatment; type: cell-based, Human cytomegalovirus; details: 2.5 μM, 10 dpi
Experimental: FIG. 8A-H are fluorescence images (A & B) and graphs showing that NAPA compounds MBX-4992 and MBXC-4336 work in both prophylactic and therapeutic settings to inhibit HCMV infection. ARPE-19 cells (A to D) and NHDF cells (E and F) treated with increasing concentrations (0, 1, 5, 20, and 50 μM) of MBX-4992, MBXC-4336, or ganciclovir (2.5 μM) were infected with AD169^R (MOI 0.025) and analyzed for viral plaques of >5,000 μm^2 (C and E) and >10,000 μm^2 (D and F) based on GFP fluorescence. The representative images of plaques from AD169^R-infected ARPE-19 cells treated MBX-4992, MBXC-4336, ganciclovir are shown (A and B). MBX-4992, MBXC-4336 (G and H), and ganciclovir treatment at 48 hpi of AD169^R-infected ARPE-19 cells (MOI 0.025) were analyzed for virus plaques >5,000 μm^2 and >10,000 μm^2 at 10 dpi. The normalized plaque number was designated to be 100 based on plaques from DMSO treated cells. Statistical tests were performed using ordinary one-way ANOVA with multiple comparisons to DMSO treated cells as a control and a Dunnett's post-test; *, p<0.05; **, p<0.01; ***, p<0.001; ****, p<0.0001.
For the prophylactic treatment analysis, the plaque assay was performed on ARPE-19 and NHDF cells (4×10^4) in a 24-well plate. The cells were pretreated for 1 hour with either MBX-4992 or MBXC-4336 (1-50 μM), DMSO, or ganciclovir (2.5 μM) and followed by virus infection with AD169^R. Following a 2-hour incubation at 37° C., the inoculum was removed and cells were overlaid with 1% low melt sea agarose. Upon solidification of the agarose, MBX-4992, MBXC-4336, DMSO, or ganciclovir in media was added at the indicated concentration. The drugs were replaced every 3 days. The cells were examined using Brightfield and GFP fluorescence to quantify the number and size of virus plaques using a Celigo Cytometer at 10 dpi.
To address whether NAPA compounds can limit virus dissemination in epithelial cells, we analyzed the inhibitory properties of MBX-4992 and MBXC-4336 using a plaque reduction assay by designating a cluster of virus infected cells as a virus plaque (Parsons et al., Antivir. Res., 193:105124 (2021)) The results are shown in FIG. 8A-H.
To evaluate the prophylactic function of the NAPA compounds, ARPE-19 cells and NHDF cells treated with DMSO, MBX-4992, MBXC-4336 (0-50 μM), or ganciclovir (2.5 μM) were infected with AD169^R CMV virus and analyzed for virus plaques at 10 dpi based on GFP fluorescence (FIG. 8A-F). A cluster of virus infected cells was designated a viral plaque based on an average cluster area of 5,000 μm^2 or 10,000 μm^2 (FIG. 8A-B) using a Celigo cytometer.

TB40/E = assay: Plaque assay, MBX-4992 and ganciclovir alone and in combination; type: cell-based, Human cytomegalovirus; details: ARPE-19 and NHDF cells, 10 dpi; MBX-4992 1-20 μM, ganciclovir 2.5 μM
Experimental: At 10 day post-infection, representative whole well images of plaques >10,000 μm^2 (A and B) were quantified based on GFP fluorescence intensity and calculated relative to DMSO controls (C and D). Statistical tests were performed using ordinary one-way ANOVA with multiple comparisons to DMSO treated cells as a control and a Dunnett's post-test. *, p<0.05; **, p<0.01; ***, p<0.001; ****, p<0.0001.
At 10 days post-infection, representative whole well images of plaques >10,000 μm^2 (A and B) were quantified based on GFP fluorescence intensity and calculated relative to DMSO controls (C and D).

AD169^R [1] = assay: Virus pre-incubation / washout study; type: cell-based, Human cytomegalovirus; details: virus pre-incubated, compound washed out; MBX-4992 10 μM, heparin 50 μg/ml
Experimental: (B) Based on the schematic, AD169^R (MOI 0.2) was pre-incubated with DMSO, MBX-4992, or heparin for one hour before being added to NHDF cells. Virus/compound mix was washed out after 30 minutes as indicated and either unchanged or replaced with media containing DMSO, MBX-4992, or heparin. Virus infection was quantified at 24 hpi GFP fluorescence. Percent infection was normalized to untreated cells.
NHDF cells (10^4) plated overnight in a 96-well plate were incubated at 4° C. for 30 minutes with AD169^R CMV virus pretreated with MBX-4992 (10 μM), Heparin (50 μg/mL) or DMSO for 1 hour at room temperature (in triplicate). For 2/3rd of the samples, media was aspirated and half of the wells received DMSO media, regardless of which drug the virus was exposed to, or MBX-4992 (10 μM), or Heparin (50 μg/mL) overnight. At 18 hpi, the cells were fixed with 4% paraformaldehyde, stained with a rabbit anti-IE1 antibody followed by an anti-rabbit Alexa 647, and analyzed using the Celigo cytometer. The DMSO condition that was not aspirated post binding was set as 100% infection.
To further characterize the mechanism of action, pre-incubation/washout studies were performed using AD169^R and MBX-4992. […] At 18 hpi, cells were immunostained with an anti-IE1 antibody as a readout for infection and quantified using a Celigo cytometer. […]

AD169^R [2] = assay: Cells pre-incubation / washout study; type: cell-based, Human cytomegalovirus; details: cells pre-treated; drugs not removed or added back to washed-out cells
Experimental: (C) NHDF cells were pre-incubated with DMSO, MBX-4992 or heparin prior to virus addition. After addition of AD169^R (MOI 0.2) for 30 min, media was either unchanged or replaced with media containing DMSO, MBX-4992, or heparin. Virus infection was quantified at 24 hpi by GFP fluorescence. Percent infection was normalized to untreated cells. Statistical tests were performed using ordinary one-way ANOVA with multiple comparisons to DMSO treated cells as a control and a Dunnett's post-test: *, p<0.05; ****, p<0.0001.
NHDF cells (10^4) plated overnight in a 96-well plate were pretreated with MBX-4992 (10 μM), heparin (50 μg/mL) or DMSO for 1 hour at 37° C. The plate was then placed at 4° C. for 5 minutes followed by the addition of AD169^R CMV virus for 30 minutes. 2/3rd of the samples were aspirated post binding. Half of those samples received DMSO media, regardless of the drug the cells were previously exposed to. The remaining wells received either MBX-4992 (10 μM) or Heparin (50 μg/mL) overnight. At 18 hpi, the cells were fixed with 4% paraformaldehyde, stained with a rabbit anti-IE1 antibody followed by an anti-rabbit Alexa 647, and analyzed using the Celigo cytometer. The DMSO condition that was not aspirated post binding was set as 100% infection.
We next examined whether pre-treating cells with MBX-4992 can limit virus infection. Cells were pre-treated with MBX-4992 or heparin for […] followed by the addition of AD169^R for 30 min at 4° C. The cells were either washed out or unchanged as indicated and replaced with media containing DMSO, MBX-4992, or heparin followed by incubation at 37° C. At 18 hpi, virus infection was evaluated using a Celigo cytometer.

NHDF cells [3] = assay: Cell number by Hoechst stain (cell proliferation); type: cell-based, human; details: up to 50 μM, 6 day period; cycloheximide 50 μg/mL
Experimental: (§2) Fibroblasts were treated with increasing concentrations of MBX-4992 and MBXC-4336 for up to 6 days and cell number was measured periodically using Hoechst stain to quantify cell proliferation (A and B). Cyclohexamide (CHX) and DMSO (−) were used as positive and negative controls for cytotoxicity respectively. Cell cytostaticity (C and D) was assessed using ATP-based CellTiter Glo luciferase assay following extended incubation with increasing concentrations of MBX-4992 and MBXC-4336 for 1 or 6 days. Relative light units (RLU) were measured following cell lysis and normalized to DMSO treated cells for each time point.
(§3) The CellTiter Glo Luminescent Assay (Promega Inc, Madison, WI) was performed according to the manufacturer's instruction. NHDF cells (10^4) were plated in a 96-well plate overnight and treated with MBX-4992 or MXC-4336 ([…]) in triplicate for up to 6 days. Cyclohexamide (50 μg/mL) was used as a control. CellTiter Glo substrate was added in a 1:1 ratio with media and CellTiter-Glo reagent followed by the analysis of luciferase activity (relative light units, RLU) using a BioTek Synergy H1 microplate reader. In parallel, an identical plate was labelled with Hoescht reagent (25 μg/mL) to quantify the cell number using a Celigo Cytometer.
(§4) Next, the cytostaticity and cytotoxicity of treatment with MBX-4992 and MBXC-4336 was analyzed. […]

NHDF cells [4] = assay: CellTiter Glo ATP luciferase assay; type: cell-based, human; details: 0-50 μM, 1 or 6 days; cycloheximide 50 μg/mL
Experimental: as §2, §3, §4

## Nc1nc(O)c2ncn(COC(CO)CO)c2n1 [ganciclovir, reference compound]
AD169^R (IE1 expression)
  IE1 expression by immunoblot: did not impact infection
HCMV AD169
  pIC50: 6.05
HCMV GDGr K17 (GCV^R)
  pIC50: 4.98
MCMV Smith
  pIC50: 6.70
AD169^R CMV virus
  reduction of plaque number: ~50%
TB40/E
  viral plaques >10,000 μm^2, single drug: decreased

## heparin [reference compound]
AD169^R [1]
  decrease of infection after washing out: positive control for inhibition
AD169^R [2]
  virus infection, drug not removed or added back: significantly inhibited virus infection

## C[C@@H]1C[C@@H]([C@H](O)CC2CC(=O)NC(=O)C2)C(=O)[C@@H](C)C1 [cycloheximide, reference compound]
NHDF cells [3]
  cell number: dramatic decrease in cell number and luciferase activity
NHDF cells [4]
  luciferase signal (ATP levels): dramatic decrease in cell number and luciferase activity
